From the supplement of paper PMC11061612

Key:
[1] = compound: C1CN(CCC1(C(=O)N[C@@H](CCO)C2=CC=C(C=C2)Cl)N)C3=NC=NC4=C3C=CN4 [Capivasertib]
Method in brief: (§1)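 Cancer cell lines were dosed for 72 hours (final DMSO typically 0.2%) after 24 hours at 37°C and 5% CO2 in 1536-well plates containing 7.5 μl DMEM/F12 or RPMI with 10% FBS. Viability came from CellTiter-Glo 2.0 luminescence, scaled between blank-well and DMSO-well means, and dose responses were fitted to a two-parameter logistic curve with a non-linear mixed effects model. The single-agent IC50 was obtained from this fit.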

[2] = compound: C=CCn1c(=O)c2cnc(Nc3ccc(N4CCN(C)CC4)cc3)nc2n1-c1cccc(C(C)(C)O)n1 [AZD1775]; settings: max 3 µM
Method in brief: as §1

[3] = compound: CN(C)CCCOc1ccc(-c2ccc3ncc4c(c3c2)n(C2CCOCC2)c(=O)n4C)cn1 [AZD0156]; settings: max 3 µM
Method in brief: as §1

[4] = compound: O=C(c1cc(Cc2n[nH]c(=O)c3ccccc23)ccc1F)N1CCN(C(=O)C2CC2)CC1 [Olaparib]
Method in brief: as §1

[5] = compound: CC(=O)Nc1cccc(-n2c(=O)n(C3CC3)c(=O)c3c(Nc4ccc(I)cc4F)n(C)c(=O)c(C)c32)c1 [Trametinib]; settings: max 1 µM
Method in brief: as §1

[6] = compound: CC(=O)c1c(C)c2cnc(Nc3ccc(N4CCNCC4)cn3)nc2n(C2CCCC2)c1=O [Palbociclib]; settings: max 10 µM
Method in brief: as §1

[7] = compound: CC(C)n1c(=O)n(C)c2cnc3cc(F)c(-c4ccc(OCCCN5CCCCC5)nc4)cc3c21 [AZD1390]; settings: max 0.3 µM
Method in brief: as §1

[8] = compound: CC1(C)CCC(CN2CCN(c3ccc(C(=O)NS(=O)(=O)c4ccc(NCC5CCOCC5)c([N+](=O)[O-])c4)c(Oc4cnc5[nH]ccc5c4)c3)CC2)=C(c2ccc(Cl)cc2)C1 [Venetoclax]; settings: max 1 µM
Method in brief: as §1

[9] = compound: CC1=C(C(=CC=C1)Cl)NC(=O)C2=CN=C(S2)NC3=CC(=NC(=N3)C)N4CCN(CC4)CCO [Dasatinib]; settings: max 2 µM
Method in brief: as §1

[10] = compound: CCN(CCO)CCCOc1ccc2c(Nc3cc(CC(=O)Nc4cccc(F)c4)[nH]n3)ncnc2c1 [AZD2811]; settings: max 1 µM
Method in brief: as §1

[11] = compound: CCc1c2c(nc3ccc(O)cc13)-c1cc3c(c(=O)n1C2)COC(=O)[C@]3(O)CC [SN-38]; settings: max 0.3 µM
Method in brief: as §1

[12] = compound: CN(CC[C@H](CSC1=CC=CC=C1)NC2=C(C=C(C=C2)S(=O)(=O)NC(=O)C3=CC=C(C=C3)N4CCC(CC4)[C@H](C5=CC=CC=C5C6=CC=C(C=C6)Cl)O)S(=O)(=O)C(F)(F)F)CCO [AZD4320]; settings: max 1 µM
Method in brief: as §1

[13] = compound: COc1cc(Nc2ncc3c(n2)-c2ccc(Cl)cc2C(c2c(F)cccc2OC)=NC3)ccc1C(=O)O [Alisertib]; settings: max 10 µM
Method in brief: as §1

[14] = compound: COc1cc2ncnc(Nc3ccc(F)c(Cl)c3)c2cc1OCCCN1CCOCC1 [Gefitinib]; settings: max 10 µM
Method in brief: as §1

[15] = compound: COc1cccc(OCCCN)c1-c1cc(Nc2cnc(C#N)cn2)n[nH]1 [Prexasertib]; settings: max 1 µM
Method in brief: as §1

[16] = compound: COc1nnc2ccc(N3CCC(c4ccc(OCCN5CCN(C)C(=O)[C@H]5C)cc4)CC3)nn12 [AZD5153]; settings: max 1 µM
Method in brief: as §1

[17] = compound: CS(=O)(=O)CCNCc1ccc(-c2ccc3ncnc(Nc4ccc(OCc5cccc(F)c5)c(Cl)c4)c3c2)o1 [Lapatinib]; settings: max 10 µM
Method in brief: as §1

[18] = compound: C[C@@H](Nc1cc(F)cc(F)c1)c1cc(C(=O)N(C)C)cc2c(=O)cc(N3CCOCC3)oc12 [AZD8186]
Method in brief: as §1

[19] = compound: C[C@@H](Oc1cc(-c2cnn(C3CCNCC3)c2)cnc1N)c1c(Cl)ccc(F)c1Cl [Crizotinib]; settings: max 10 µM
Method in brief: as §1

[20] = compound: C[C@@H](c1ccc2nccn2c1)n1nnc2ncc(-c3cnn(C)c3)nc21 [Savolitinib]; settings: max 1 µM
Method in brief: as §1

[21] = compound: C[C@@H]1COCCN1C2=NC(=NC(=C2)C3(CC3)[S@](=N)(=O)C)C4=C5C=CNC5=NC=C4 [AZD6738]; settings: max 10 µM
Method in brief: as §1

[22] = compound: Cc1c2c(nn1C)CSCc1cc(n(C)n1)CSc1cc(c3ccccc3c1)OCCCc1c(C(=O)O)n(C)c3c-2c(Cl)ccc13 [AZD5991]; settings: max 1 µM
Method in brief: as §1

[23] = compound: Cc1cc2ncnn2cc1Nc1ncc2c(n1)n(C1CCOCC1)c(=O)n2C [AZD7648]; settings: max 10 µM
Method in brief: as §1

[24] = compound: Cc1nc(-c2cn3c(n2)-c2ccc(-c4cnn(C(C)(C)C(N)=O)c4)cc2OCC3)n(C(C)C)n1 [Taselisib]; settings: max 10 µM
Method in brief: as §1

[25] = compound: Cn1cnc2c(F)c(Nc3ccc(Br)cc3Cl)c(C(=O)NOCCO)cc21 [Selumetinib]; settings: max 10 µM
Method in brief: as §1

[26] = compound: C1CC(C1)(C(=O)[O-])C(=O)[O-].N.N.[Pt+2] [Carboplatin]; settings: max 10 µM
Method in brief: as §1

[27] = compound: C1CN(CCC1(C(=O)N[C@@H](CCO)C2=CC=C(C=C2)Cl)N)C3=NC=NC4=C3C=CN4 [AZD5363]; settings: max 10 µM
Method in brief: as §1

[28] = compound: CC(=O)O[C@H]1C(=O)[C@@]2(C)[C@H]([C@H](OC(=O)c3ccccc3)[C@]3(O)C[C@H](OC(=O)[C@H](O)[C@@H](NC(=O)c4ccccc4)c4ccccc4)C(C)=C1C3(C)C)[C@]1(OC(C)=O)CO[C@@H]1C[C@@H]2O [Paclitaxel]; settings: max 3 µM
Method in brief: as §1

[29] = compound: CC1=CN2[C@@H](C1)C=NC3=CC(=C(C=C3C2=O)OC)OCCCCCOC4=C(C=C5C(=C4)N=C[C@@H]6CC(=CN6C5=O)C)OC [SG3199]; settings: max 0.001 µM
Method in brief: as §1

[30] = compound: COc1cc([C@@H]2c3cc4c(cc3[C@@H](O[C@@H]3O[C@@H]5CO[C@@H](C)O[C@H]5[C@H](O)[C@H]3O)[C@H]3COC(=O)[C@H]23)OCO4)cc(OC)c1O [Etoposide]; settings: max 10 µM
Method in brief: as §1

[31] = compound: COc1cccc2c1C(=O)c1c(O)c3c(c(O)c1C2=O)C[C@@](O)(C(=O)CO)C[C@@H]3O[C@H]1C[C@H](N)[C@H](O)[C@H](C)O1 [Doxorubicin]; settings: max 1 µM
Method in brief: as §1

[32] = compound: N#Cc1cnc(Nc2cc(NC[C@H]3CNCCO3)c(C(F)(F)F)cn2)cn1 [SRA737]; settings: max 10 µM
Method in brief: as §1

[33] = compound: NC1(c2ccc(-c3nc4ccn5c(=O)[nH]nc5c4cc3-c3ccccc3)cc2)CCC1 [MK-2206]; settings: max 10 µM
Method in brief: as §1

[34] = compound: Nc1ccn([C@@H]2O[C@H](CO)[C@@H](O)C2(F)F)c(=O)n1 [Gemcitabine]; settings: max 0.3 µM
Method in brief: as §1

[35] = compound: O=C(Nc1ccc2[nH]nc(-c3ccncc3)c2c1)[C@@H]1CCN(CC(=O)N2CCN(c3ccc(-c4ncccn4)cc3)CC2)C1; settings: max 5 µM
Method in brief: as §1

[36] = compound: O=c1[nH]cc(F)c(=O)[nH]1 [5-Fluorouracil]; settings: max 20 µM
Method in brief: as §1

Row | Cell Line | IC50, cell viability 72 h ([1]; max 3 µM) [µM] | IC50, cell viability 72 h [2] [µM] | IC50, cell viability 72 h [3] [µM] | IC50, cell viability 72 h ([4]; max 3 µM) [µM] | IC50, cell viability 72 h ([1]; max 10 µM) [µM] | IC50, cell viability 72 h [5] [µM] | IC50, cell viability 72 h [6] [µM] | IC50, cell viability 72 h [7] [µM] | IC50, cell viability 72 h [8] [µM] | IC50, cell viability 72 h [9] [µM] | IC50, cell viability 72 h [10] [µM] | IC50, cell viability 72 h [11] [µM] | IC50, cell viability 72 h [12] [µM] | IC50, cell viability 72 h [13] [µM] | IC50, cell viability 72 h [14] [µM] | IC50, cell viability 72 h [15] [µM] | IC50, cell viability 72 h [16] [µM] | IC50, cell viability 72 h [17] [µM] | IC50, cell viability 72 h ([18]; max 3 µM) [µM] | IC50, cell viability 72 h [19] [µM] | IC50, cell viability 72 h [20] [µM] | IC50, cell viability 72 h [21] [µM] | IC50, cell viability 72 h [22] [µM] | IC50, cell viability 72 h [23] [µM] | IC50, cell viability 72 h [24] [µM] | IC50, cell viability 72 h [25] [µM] | IC50, cell viability 72 h [26] [µM] | IC50, cell viability 72 h [27] [µM] | IC50, cell viability 72 h [28] [µM] | IC50, cell viability 72 h [29] [µM] | IC50, cell viability 72 h [30] [µM] | IC50, cell viability 72 h [31] [µM] | IC50, cell viability 72 h ([18]; max 10 µM) [µM] | IC50, cell viability 72 h [32] [µM] | IC50, cell viability 72 h [33] [µM] | IC50, cell viability 72 h [34] [µM] | IC50, cell viability 72 h [35] [µM] | IC50, cell viability 72 h ([4]; max 10 µM) [µM] | IC50, cell viability 72 h [36] [µM]
1 | NCI-H1869 (Non-Small Cell Lung Carcinoma) | > 3 | > 3 | > 3 | > 3 | – | – | – | – | – | – | – | – | – | – | – | – | – | – | – | – | – | – | – | – | – | – | – | – | – | – | – | – | – | – | – | – | – | – | –
2 | RC-K8 (B-Cell Non-Hodgkin's Lymphoma) | – | > 3 | > 3 | > 3 | > 10 | > 1 | > 10 | > 0.3 | > 1 | > 2 | > 1 | 0.0134 | 0.856 | 3 | > 10 | 0.0145 | 0.1 | > 10 | > 3 | > 10 | > 1 | 1.63 | > 1 | > 10 | 7.69 | > 10 | – | – | – | – | – | – | – | – | – | – | – | – | –
3 | Ramos-2G6-4C10 (Burkitt's Lymphoma) | – | 0.307 | > 3 | – | – | > 1 | > 10 | > 0.3 | > 1 | > 2 | > 1 | 0.0783 | > 1 | > 10 | > 10 | 0.0105 | 0.389 | > 10 | – | > 10 | > 1 | 3.09 | 0.168 | > 10 | > 10 | > 10 | > 10 | > 10 | 0.0159 | > 0.001 | 9.17 | 0.684 | > 10 | 3.72 | 5.61 | > 0.3 | > 5 | > 10 | > 20
4 | T98G (Glioblastoma) | – | 1.05 | > 3 | – | – | > 1 | > 10 | > 0.3 | > 1 | 0.287 | > 1 | > 0.3 | > 1 | > 10 | > 10 | 0.031 | > 1 | > 10 | – | > 10 | > 1 | 2.59 | > 1 | > 10 | 5.87 | > 10 | > 10 | > 10 | 0.0146 | > 0.001 | > 10 | > 1 | 5.45 | 2.04 | > 10 | 0.119 | > 5 | > 10 | > 20
